Experimental findings from patent publication US5883121A, “Epoxysuccinamide derivative or salt thereof, and medicine comprising the same” (Taiho Pharmaceutical Co., Ltd., priority 1995, dated 1999) are described below.

Assay [1] deals with T1, cathepsin B (Rattus norvegicus, UniProt P00787).
T1 construct: extracted from a rat liver and completely purified; from tissue; host or cells: rat liver
Kind of assay: Determination of inhibition rate against cathepsin B. It counts as biochemical. Particulars: cathepsin B from rat liver; substrate Z-Arg-Arg-MCA; pH 5.5; 30° C; 10 minutes. How it is done:
(§1) Determination of inhibition rate against cathepsin L, B and H […]
(§2) Each cathepsin was diluted with a diluent (0.1% Brij 35) to adjust its concentration to 0.3 U (0.1 U: a concentration at which 1.0 nmol of MCA is released per minute at 37° C.). To 500 μl of this solution, were added 250 μl of an activator/buffer (340 mM sodium acetate, 60 mM acetic acid, 4 mM disodium EDTA; pH 5.5). After the mixture was incubated for 1 minute at 30° C., the sample solution of the predetermined concentration and […] of a substrate solution were added to conduct a reaction for 10 minutes.

In assay [2] the target is T2, cathepsin L (Rattus norvegicus, UniProt P07154).
T2 construct: extracted from a rat liver and completely purified; from tissue; host or cells: rat liver
T2 sequence (P07154 114-288 limits assumed): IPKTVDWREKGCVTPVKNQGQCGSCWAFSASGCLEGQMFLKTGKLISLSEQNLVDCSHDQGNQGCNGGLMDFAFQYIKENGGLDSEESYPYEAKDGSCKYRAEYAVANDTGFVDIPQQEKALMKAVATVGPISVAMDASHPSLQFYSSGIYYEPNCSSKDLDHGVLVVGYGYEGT
T2 sequence (P07154 291-334 limits assumed): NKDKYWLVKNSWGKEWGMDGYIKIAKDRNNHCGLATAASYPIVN
Put plainly: Determination of inhibition rate against cathepsin L. It counts as biochemical. To be noted: for B/L: IC50 against cathepsin B divided by IC50 against cathepsin L; for pIC50: cathepsin L from rat liver, substrate Z-Phe-Arg-MCA, pH 5.5, 30° C, 10 minutes. How it is done: as §1, §2

As a reminder, the pIC50 is the negative decadic logarithm of the IC50, by convention in mol/L.

pIC50: −log10 of the molar value. Counter-ions that a name gives are not always drawn. Where only a bound is given, the exact number is not on record here.

T1 sequence (P00787 129-333 limits assumed): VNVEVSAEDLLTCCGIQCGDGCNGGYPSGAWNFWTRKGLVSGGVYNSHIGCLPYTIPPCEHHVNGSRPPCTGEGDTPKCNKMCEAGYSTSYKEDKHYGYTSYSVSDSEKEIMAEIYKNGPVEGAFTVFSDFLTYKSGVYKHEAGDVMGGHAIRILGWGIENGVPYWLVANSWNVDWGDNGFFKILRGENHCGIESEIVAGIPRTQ
T1 sequence (P00787 80-126 limits assumed): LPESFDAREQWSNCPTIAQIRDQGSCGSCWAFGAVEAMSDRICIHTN

In turn, `CCCNC(=O)[C@H](Cc1ccccc1)NC(=O)[C@H]1O[C@@H]1C(=O)N[C@@H](CCCCN)C(=O)Nc1cccc2ccccc12` [Example 51, Nα-{L-3-trans-[(S)-1-propylcarbamoyl-2-phenylethylcarbamoyl]oxirane-2-carbonyl-L-lysine-1-naphthylamide hydrochloride] had a negative-log IC50 (pIC50) in assay [1] of 5.07. Moreover, in assay [2], the B/L is given as > 85000 and the negative logarithm of the IC50 (pIC50) is > 10.00.
In turn, `NCCCC[C@H](NC(=O)[C@H]1O[C@@H]1C(=O)N[C@@H](Cc1ccccc1)C(N)=O)C(=O)Nc1ccc(Cl)c2ccccc12` [Example 48, Nα-{L-3-trans-[(S)-1-carbamoyl-2-phenylethylcarbamoyl]oxirane-2-carbonyl}-L-lysine-1-(4-chloronaphthyl)amide hydrochloride] gave a negative logarithm of the IC50 (pIC50) in assay [1] of 5.51. The B/L in assay [2] is 7045.
Consider `CCCNC(=O)[C@H](Cc1ccccc1)NC(=O)[C@H]1O[C@@H]1C(=O)N[C@@H](CCCCN)C(=O)Nc1ccccc1` [Example 59, Nα-{L-3-trans-[(S)-1-propylcarbamoyl-2-phenylethylcarbamoyl]oxirane-2-carbonyl}-L-lysine anilide hydrochloride], for which the pIC50 in assay [1] is < 5.00. Also, in assay [2], the B/L is > 3703 and the pIC50 was 8.57.
As for `NCCCC[C@H](NC(=O)[C@H]1O[C@@H]1C(=O)N[C@@H](Cc1ccccc1)C(N)=O)C(=O)Nc1ccccc1` [Example 55, Nα-{L-3-trans-[(S)-1-carbamoyl-2-phenylethylcarbamoyl]oxirane-2-carbonyl}-Nε-L-lysine anilide hydrochloride], the negative logarithm of the IC50 (pIC50) in assay [1] was 4.36; in assay [2], 7.74. In assay [2], this compound came in with a B/L of 2444.
Compound `NCCCC[C@H](NC(=O)[C@H]1O[C@@H]1C(=O)NC1Cc2ccccc2C1)C(=O)NC1c2ccccc2-c2ccccc21` [Example 10, Nα-[L-3-trans-(2-indanylcarbamoyl)oxirane-2-carbonyl]-L-lysine-9-fluorenylamide hydrochloride] gave a pIC50 in assay [2] of 6.06.
Take `CNC(=O)[C@H](Cc1ccccc1)NC(=O)[C@H]1O[C@@H]1C(=O)N[C@@H](CCCCN)C(=O)Nc1ccccc1` [Example 63, Nα-{L-3-trans-[(S)-1-methylcarbamoyl-2-phenylethylcarbamoyl]oxirane-2-carbonyl}-L-lysine anilide hydrochloride]: the results for the pIC50 in assay [1] and in assay [2] were < 5.00 and 8.28, respectively. For the same compound, the B/L in assay [2] is 1923.
For `NCCCC[C@H](NC(=O)[C@H]1O[C@@H]1C(=O)N[C@@H](Cc1ccccc1)C(=O)NCCc1ccccc1)C(=O)Nc1cccc2ccccc12` [Example 24, Nα-{L-3-trans-[(S)-1-(2-phenylethylcarbamoyl)-2-phenylethylcarbamoyl]oxirane-2-carbonyl}-L-lysine-1-naphthylamide hydrochloride], in that order: 5.68, 10.52 and 70000.
As to `NCCCC[C@H](NC(=O)[C@H]1O[C@@H]1C(=O)N[C@@H](Cc1ccccc1)C(=O)NCCc1ccccc1)C(=O)Nc1ccc(Cl)c2ccccc12` [Example 49, Nα-{L-3-trans-[(S)-1-(2-phenylethylcarbamoyl)-2-phenylethylcarbamoyl]oxirane-2-carbonyl}-L-lysine-1-(4-chloronaphthyl)amide hydrochloride], the negative logarithm of the IC50 (pIC50) in assay [1] was 5.70; in assay [2] it was 8.77. Further, the B/L in assay [2] is on record as 1176.
Compound `NCCCC[C@H](NC(=O)[C@H]1O[C@@H]1C(=O)N[C@@H](Cc1ccccc1)C(=O)NCCc1ccccc1)C(=O)Nc1ccccc1` [Example 35, Nα-{L-3-trans-[(S)-1-(2-phenylethylcarbamoyl)-2-phenylethylcarbamoyl]oxirane-2-carbonyl}-L-lysine anilide hydrochloride] had a pIC50 in assay [1] of 4.96. In addition, in assay [2], the B/L was determined as 6470 and the pIC50 was 8.77.
Regarding `CCNC(=O)[C@H](Cc1ccccc1)NC(=O)[C@H]1O[C@@H]1C(=O)N[C@@H](CCCCN)C(=O)Nc1ccccc1` [Example 67, Nα-{L-3-trans-[(S)-1-ethylcarbamoyl-2-phenylethylcarbamoyl]oxirane-2-carbonyl)-L-lysine anilide hydrochloride], the negative logarithm of the IC50 (pIC50) was 4.17 in assay [1] and 7.44 in assay [2]. For the same compound, the B/L in assay [2] was determined as 1570.
For `NCCCCCCCCNC(=O)[C@H](Cc1ccccc1)NC(=O)[C@H]1O[C@@H]1C(=O)O` [Preparation Example 61, N-{N-[(2S,3S)-3-trans-Carboxyoxirane-2-carbonyl]-L-phenylalanyl}-1,8-diaminooctane, reference compound], in that order: 7.64, 9.09 and 28.4.
For `COc1ccccc1NC(=O)[C@H](CCCCN)NC(=O)[C@H]1O[C@@H]1C(=O)N[C@@H](Cc1ccccc1)C(=O)NCCc1ccccc1` [Example 39, Nα-{L-3-trans-[(S)-1-(2-phenylethylcarbamoyl)-2-phenylethylcarbamoyl]oxirane-2-carbonyl}-L-lysine-2-methoxyanilide hydrochloride], in that order: 4.92, 8.80 and 7500.
With `NCCCC[C@H](NC(=O)[C@H]1O[C@@H]1C(=O)N[C@@H](Cc1ccccc1)C(N)=O)C(=O)N(Cc1ccccc1)Cc1ccccc1` [Example 16, Nα-{L-3-trans-[(S)-1-carbamoyl-2-phenylethylcarbamoyl]oxirane-2-carbonyl}-L-lysine dibenzylamide hydrochloride], the pIC50 in assay [2] was 6.66.
On the same count and under the same terms, to `CC(=O)NCCCC[C@H](NC(=O)[C@H]1O[C@@H]1C(=O)N[C@@H](Cc1ccccc1)C(N)=O)C(=O)Nc1cccc2ccccc12` [Example 31, Nα-{L-3-trans-[(S)-1-carbamoyl-2-phenylethylcarbamoyl]oxirane-2-carbonyl)-Nε-acetyl-L-lysine-1-naphthylamide] belongs 8.15.
With `CC(C)NC(=O)[C@H](Cc1ccccc1)NC(=O)[C@H]1O[C@@H]1C(=O)N[C@@H](CCCCN)C(=O)Nc1ccccc1` [Example 61, Nα-{L-3-trans-[(S)-1-isopropylcarbamoyl-2-phenylethylcarbamoyl]oxirane-2-carbonyl}-L-lysine anilide hydrochloride], the pIC50 in assay [1] was < 5.00. Besides, in assay [2], the B/L is given as > 3571 and the negative logarithm of the IC50 (pIC50) is 8.55.
The like results for `NCCCC[C@H](NC(=O)[C@H]1O[C@@H]1C(=O)NC1Cc2ccccc2C1)C(=O)Nc1cccc2ccccc12` [Example 12, Nα-[L-3-trans-(2-indanylcarbamoyl)oxirane-2-carbonyl]-L-lysine-1-naphthylamide hydrochloride] were, in that order, < 5.00, > 250 and 7.40.
The like results for `NCCCC[C@H](NC(=O)[C@H]1O[C@@H]1C(=O)N[C@@H](Cc1ccccc1)C(=O)NCCc1ccccc1)C(=O)Nc1ccccc1C(F)(F)F` [Example 43, Nα-{L-3-trans-[(S)-1-(2-phenylethylcarbamoyl)-2-phenylethylcarbamoyl]oxirane-2-carbonyl)-L-lysine-2-trifluoromethylanilide hydrochloride] were, in that order, 4.05, 30000 and 8.52.
For `NCCCC[C@H](NC(=O)[C@H]1O[C@@H]1C(=O)N[C@@H](Cc1ccccc1)C(=O)NC1CCCCC1)C(=O)Nc1ccccc1` [Example 69, Nα-{L-3-trans-[(S)-1-cyclohexylcarbamoyl-2-phenylethylcarbamoyl]oxirane-2-carbonyl}-L-lysine anilide hydrochloride], in that order: < 5.00, > 1177 and 8.07.
As for `NCCCC[C@H](NC(=O)[C@H]1O[C@@H]1C(=O)N[C@@H](Cc1ccccc1)C(=O)Nc1ccccc1)C(=O)Nc1cccc2ccccc12` [Example 57, Nα-{L-3-trans-[(S)-1-phenylcarbamoyl-2-phenylethylcarbamoyl]oxirane-2-carbonyl}-L-lysine-1-naphthylamide hydrochloride], the pIC50 in assay [1] is < 5.00. Also, in assay [2], the B/L is on record as > 11111 and the negative-log IC50 (pIC50) is 8.05.
Take `CN(C)C(=O)[C@H](Cc1ccccc1)NC(=O)[C@H]1O[C@@H]1C(=O)N[C@@H](CCCCN)C(=O)Nc1ccccc1` [Example 65, Nα-{L-3-trans-[(S)-1-dimethylcarbamoyl-2-phenylethylcarbamoyl]oxirane-2-carbonyl}-L-lysine anilide hydrochloride]: the negative logarithm of the IC50 (pIC50) in assay [1] is < 5.00. Also, in assay [2], the B/L is given as > 333 and the negative logarithm of the IC50 (pIC50) was 7.52.
In assay [2], `NCCCC[C@H](NC(=O)[C@H]1O[C@@H]1C(=O)NCCc1ccccc1)C(=O)NC1c2ccccc2-c2ccccc21` [Example 6, Nα-[L-3-trans-(2-phenylethylcarbamoyl)oxirane-2-carbonyl]-L-lysine-9-fluorenylamide hydrochloride] had a negative-log IC50 (pIC50) of 6.02.
As to `COc1ccccc1NC(=O)[C@H](CCCCN)NC(=O)[C@H]1O[C@@H]1C(=O)N[C@@H](Cc1ccccc1)C(N)=O` [Example 37, Nα-{L-3-trans-[(S)-1-carbamoyl-2-phenylethylcarbamoyl]oxirane-2-carbonyl}-L-lysine-2-methoxyanilide hydrochloride], the negative-log IC50 (pIC50) in assay [1] was 4.60; in assay [2], 8.19. The compound further displayed a B/L in assay [2] of 3906.
